Experimental data as given in patent publication US9655865B2, “Therapeutic treatment for metabolic syndrome, type 2 diabetes, obesity, or prediabetes” (VeroScience, LLC, priority 2002, dated 2017).

Columns and labels:
Format in all cases: in vivo
[1] = tested on: high fat fed, hypertensive SHR rats; assay: Quinelorane and fusaric acid, alone and combined, in high fat fed hypertensive SHR rats (Example 5); conditions: SHR rats on high fat diet; for change from baseline body weight (weight loss): FA 12.5 mg/kg, FIGS. 1 and 2; for blood glucose: FIG. 6
Procedure: Male SHR rats were maintained on 14 hour daily photoperiods and fed a high fat diet (60% of energy from fat; 5.24 kcal/gram weight) for 3 weeks and then divided into different groups and treated with either quinelorane (Q; a dopamine D2/D3 mixed receptor agonist) (0.075 mg/kg), fusaric acid (FA; a dopamine beta hydroxylase inhibitor) (12.5 mg/kg), quinelorane (0.075 mg/kg) plus FA (Q/FA) (12.5 mg/kg), or vehicle at 13 hours after light onset for 17 days. The doses of Q and FA were set at less than half maximal to effect central dopamine receptor binding functions and dopamine beta hydroxylase activity, respectively. […] Blood pressure measurements were taken at 14 days of treatment and animals were sacrificed at 18 days of treatment for analyses of body fat and humoral factors and metabolites. […] Respecting blood glucose, although both Q and FA reduced glucose level relative to vehicle, only the Q/FA regimen normalized blood glucose in these animals relative to vehicle (FIG. 6).

[2] = tested on: obese, diabetic female ob/ob mice; assay: GBR 12909 and clonidine, alone and combined, 14 days in ob/ob mice with mild diabetes (Example 2); conditions: GBR 12909 about 20 mg/kg, clonidine about 0.1 mg/kg, once daily 14 days, controls 202+/−41
Procedure: GBR 12909 is a specific dopamine reuptake inhibitor. Its use can increase the dopaminergic to noradrenergic neuronal activity in the central nervous system. However, by combining GBR 12909 with clonidine, a noradrenergic alpha 2 receptor agonist with preferential affinity for presynaptic alpha 2 sites, it is possible to further increase the dopamine to noradrenaline neuronal activity ratio in the central nervous system. A study was conducted to determine the interactive effects of GBR 12909 and clonidine on blood glucose level in ob/ob mice.
Obese, diabetic female ob/ob mice (body weight of approximately 28 g) with mild diabetes were maintained on 14 hour daily photoperiods, housed one per cage and allowed to feed ad libitum. Different groups of these animals were randomized to once daily treatment with either a specific dopamine reuptake inhibitor, GBR 12909 at an approximate dose of 20 mg/kg body weight (n=4), or clonidine at an approximate dose of 0.1 mg/kg (n=5), these same dosages of GBR 12909 plus clonidine (n=3), or vehicle (control group; n=5-7) for a 14 day period. On the fifteenth day of the study and approximately 24 hours after the final treatment animals were sacrificed and blood samples were obtained for the analyses of blood glucose levels.

[3] = tested on: Female C57 Black mice fed a high simple sugar/moderate fat diet (western diet); assay: GBR 12909, FA, clonidine and combinations in C57 Black mice on western diet, body fat (Example 6); conditions: GBR 25 mg/kg, FA 10 mg/kg, clonidine 0.075 mg/kg, 14 days, FIG. 7
[4] = tested on: Female obese diabetic mice (ob/ob strain); assay: Bupropion and FA, alone and combined, 14 days in ob/ob mice (Example 7); conditions: bupropion 40 mg/kg, FA 10 mg/kg, FIG. 9
Procedure: Female obese diabetic mice (ob/ob strain) at 6 weeks of age were fed standard rodent chow and different groups of animals (n=5-7/group) were treated with bupropion (40 mg/kg), FA (10 mg/kg), bupropion (40 mg/kg) plus FA (10 mg/kg), or vehicle for 14 days and then sacrificed for the analyses of blood glucose and body fat store level. […] Moreover, these reductions were more than additive in magnitude relative to the effects of the individual compounds combined.

[5] = tested on: obese, diabetic female ob/ob mice; assay: Fusaric acid and SKF 38393, alone and combined, 14 days in ob/ob mice (Example 4); conditions: fusaric acid 15 mg/kg, SKF 38393 10 mg/kg; for retroperitoneal fat pad weight / plasma triglyceride level: 14 days; for retroperitoneal fat pad weight: control 727+/−25; for plasma triglyceride level: controls 155+/−15; for blood glucose: once daily 14 days, controls 380+/−30
Procedure: Fusaric acid is a dopamine beta hydroxylase inhibitor that reduces noradrenaline synthesis in noradrenergic neurons. It is not present in dopaminergic neurons and thus exerts no such effect there. SKF38393 is a post-synaptic dopamine D1 receptor agonist with no marked influence on noradrenergic neurons. A study was conducted to determine the interactive effects of fusaric acid plus SKF 38393 on body fat store levels, and blood glucose and plasma triglyceride levels in ob/ob mice. The ob/ob mouse is hyperphagic, obese, insulin resistant, diabetic and dyslipidemic due to the absence of functional leptin as a result of a mutation in this gene.
Obese, diabetic female ob/ob mice (body weight of approximately 33 g) maintained on 14 hour daily photoperiods, housed one per cage and allowed to feed ad libitum were randomized to once daily treatment with either fusaric acid (15 mg/kg; n=6-8), SKF 38393 (10 mg/kg; n=6-8), both fusaric acid (15 mg/kg) and SKF 38393 (10 mg/kg) (n=6-8), or vehicle (control group; n=6-8) for a 14 day period. On the fifteenth day of the study and approximately 24 hours after the final treatment animals were sacrificed and blood samples were obtained for the analyses of blood glucose, plasma free fatty acid and triglyceride levels. Relative to controls, fusaric acid raised blood glucose from 380+/−30 mg/dl to 430+/−30 mg/dl and SKF 38393 reduced blood glucose to 290+/−55 mg/dl. However, fusaric acid plus SKF 38393 reduced blood glucose to 180+/−20 mg/dl. […] Neither fusaric acid nor SKF 38393 had any effect on retroperitoneal fat pad weight (735+/−43 mg and 735+/−50 mg, respectively versus control value of 727+/−25 mg) however, the combination of fusaric acid plus SKF 38393 reduced retroperitoneal fat pad weight to 680+/−25 mg.

[6] = tested on: Female mice fed a high fat diet for 20 weeks; assay: GBR 12909 and FA, alone and combined, 14 days in high fat diet mice (Example 9); conditions: for body weight: 2 weeks treatment, normal weight for age matched controls=28 grams, FIG. 15; for plasma insulin levels: compared to lean controls, FIG. 12
Procedure: Female mice at 4 weeks of age were fed a high fat diet for 20 weeks to induce diabetes and insulin resistance and continued on such diet while treated for 14 days with either GBR 12909 (10 mg/kg), FA (15 mg/kg), GBR 12909 (10 mg/kg) plus FA (15 mg/kg), or vehicle and sacrificed after 14 days of treatment for the analyses of body fat, blood glucose, plasma insulin, and plasma nitric oxide levels. The composite of body fat store level, blood glucose and plasma insulin was reduced the greatest in the GBR/FA group and by a magnitude more than additive of the individual GBR and FA groups combined. Only the GBR/FA group normalized plasma insulin levels. […] This effect was not observed with either GBR or FA treatments alone.

[7] = tested on: obese, diabetic female ob/ob mice; assay: Amphetamine with or without bromocriptine, 14 days in ob/ob mice (Example 3); conditions: amphetamine 3 mg/kg
From the text: Amphetamine is a selective presynaptic dopamine release enhancer. It also acts as a presynaptic noradrenergic release enhancer but at higher dosages that will counter the effect of the dopamine reuptake inhibition activity to improve metabolism. However, addition of a dopamine D2 receptor agonist will act to reduce any amphetamine-induced increase in synaptic noradrenaline level and therefore should produce a more pronounced desired effect on metabolic disease than amphetamine or the D2 receptor agonist alone. A study was conducted to determine the effects of low dose amphetamine (3 mg/kg) with or without the dopamine D2 receptor agonist bromocriptine (5-<10 mg/kg dose) upon body weight gain, blood glucose, plasma free fatty acid and triglyceride levels in obese, diabetic mice (ob/ob strain). […] The ob/ob mouse is hyperphagic, obese, insulin resistant, diabetic and dyslipidemic due to the absence of functional leptin as a result of a mutation in this gene. Starvation or calorie restriction of these mice leads to increases in plasma free fatty acid levels that can function over the long term to worsen diabetes.
On the fifteenth day of the study and approximately 24 hours after the final treatment animals were sacrificed and blood samples were obtained for the analyses of blood glucose, plasma free fatty acid and triglyceride levels.

[8] = tested on: male mice fed a high fat diet; assay: GBR versus bupropion in high fat diet mice (Example 11)
Procedure: The effect of increasing central dopamine neuronal activity versus increasing central dopamine plus norepinephrine neuronal activity on body fat, blood glucose, plasma insulin, and insulin sensitivity was studied in male mice fed a high fat diet from 4 weeks of age until 24 weeks of age. These mice were maintained on this high fat diet while treated with either GBR (20 mg/kg) (a selective dopamine reuptake inhibitor) or bupropion (20 mg/kg) (a dopamine and norepinpehrine reuptake inhibitor) at doses that approximate their 50% maximal effective dose for these functions in vivo in rodents.

[9] = tested on: obese, diabetic mice (ob/ob strain); assay: GBR 12909 once daily for 14 days in obese, diabetic ob/ob mice (Example 1); conditions: 30 mg/kg once daily 14 days
Procedure: GBR 12909 (1-(2-[bis(4-Fluorophenyl)methoxy]ethyl)-4-(3-phenylpropyl)piperazine dihydrochloride) is a specific dopamine reuptake inhibitor. Systemic administration of GBR 12909 can increase the dopaminergic to noradrenergic neuronal activity in the central nervous system. A study was conducted to determine the effects of GBR 12909 upon blood glucose and plasma free fatty acid levels in obese, diabetic mice (ob/ob strain). The ob/ob mouse is hyperphagic, obese, insulin resistant, diabetic and dyslipidemic due to the absence of functional leptin as a result of a mutation in this gene. Starvation or calorie restriction of these mice leads to increases in plasma free fatty acid levels that can function over the long term to worsen diabetes.
Different groups of obese, diabetic female (ob/ob) mice (body weight of approximately 33 g) maintained on 12 hour daily photoperiods, housed one per cage and allowed to feed ad libitum were randomized to once daily treatment with either a specific dopamine reuptake inhibitor, GBR 12909 at a dose of 30 mg/kg body weight (n=5-7) or vehicle (control group; n=5-7) for a 14 day period. On the fifteenth day of the study and approximately 24 hours after the final treatment animals were sacrificed and blood samples were obtained for the analyses of blood glucose and plasma free fatty acid and triglyceride levels.

[10] = relative to vehicle, sacrifice at 18 days
[11] = GBR 12909 10 mg/kg, FA 15 mg/kg, 14 days

With CCCN1CCC[C@@H]2Cc3nc(N)ncc3C[C@H]21 [Q] the “desensitization to the effects on weight loss” value ([1]; Q 0.075 mg/kg, 17 days) was “exhibited desensitization”, the “change from baseline body weight (weight loss)” value ([1]; Q 0.075 mg/kg, 17 days) was “modest if any effects” and the blood glucose ([1]; relative to vehicle) was “reduced”. For the same molecule, the “plasma endothelin-1 (endothelin 1-21 fragment)” value [1, 10] was “no significant effect” and the plasma nitric oxide [1, 10] was “no significant effect”.

Clc1cccc(Cl)c1NC1=NCCN1 [clonidine, 2-(2,6-dichloroanilino)-2-imidazoline] was tested, and the blood glucose [2] was 250 ± 35 mg/dL and the “body fat store level (intraabdominal fat pad)” value [3] was “no effect”.

With CCCCc1ccc(C(=O)O)nc1 [fusaric acid, 5-butyl-2-pyridinecarboxylic acid] the blood glucose [4] was “no significant effect”, the “change from baseline body weight (weight loss)” value ([1]; Q 0.075 mg/kg, 17 days) was “modest if any effects” and the blood glucose ([1]; relative to vehicle) was “reduced”. The “plasma C-reactive protein (CRP) levels” value [1, 10] was “no significant effect”, the “retroperitoneal fat pad weight” value [5] was 735 ± 43 mg and the plasma triglyceride level [5] was 170 ± 27 mg/dL. For the same molecule, the blood glucose [5] was 430 ± 30 mg/dL, the body weight [6] was “not observed” and the plasma insulin levels [6, 11] was “significantly higher”.

With Cl.Oc1cc2c(cc1O)C(c1ccccc1)CNCC2 (centres unmarked) [SKF 38393, 1-phenyl-7,8-dihydroxy-2,3,4,5-tetrahydro-1H-3-benzazepine hydrochloride] the “retroperitoneal fat pad weight” value [5] was 735 ± 50 mg, the plasma triglyceride level [5] was 130 ± 7 mg/dL and the blood glucose [5] was 290 ± 55 mg/dL.

For CC(N)Cc1ccccc1 (centres unmarked) [amphetamine], the “plasma free fatty acid levels” value ([7]; 14 days, controls 900+/−100) was 510 ± 30 µM, the final body weight ([7]; bromocriptine 5-<10 mg/kg, 14 days, controls 44+/−1) was “no effect” and the plasma triglyceride levels ([7]; bromocriptine 5-<10 mg/kg, 14 days, controls 175+/−21) was 70 ± 7 mg/dL. For the same molecule, the blood glucose ([7]; bromocriptine 5-<10 mg/kg, once daily 14 days, controls 422+/−46) was 348 ± 22 mg/dL.

In the case of Cl.Cl.Fc1ccc(C(OCCN2CCN(CCCc3ccccc3)CC2)c2ccc(F)cc2)cc1 [GBR 12909, 1-(2-[bis(4-Fluorophenyl)methoxy]ethyl)-4-(3-phenylpropyl)piperazine dihydrochloride], the body weight [6] is reported as “not observed”, the blood glucose ([6]; GBR 12909 10 mg/kg, FA 15 mg/kg, 14 days, FIG. 11) is reported as “no significant effect” and the plasma insulin levels [6, 11] is reported as “significantly higher”. The blood glucose [2] was 221 ± 31 mg/dL, the “body fat (intraabdominal fat pad)” value ([8]; 20 mg/kg, compared to vehicle and Bupropion, FIG. 17) was “significantly reduced” and the HOMA-IR values ([8]; 20 mg/kg, compared to vehicle and Bupropion, FIG. 19) was “significantly reduced”. For the same molecule, the blood glucose ([8]; 20 mg/kg, relative to vehicle and Bupropion, FIG. 18) was “significantly reduced”, the “reduction of plasma insulin compared with bupropion” value ([8]; equal dose 20 mg/kg) was “much more effective” and the “reduction of plasma triglyceride level relative to controls” value [9] was “approximately 32%”. The blood glucose ([9]; about 24 h after final treatment, controls 455+/−50) was 145 ± 25 mg/dL, the final body weight ([9]; controls 42+/−2) was 28 ± 0.5 g and the “plasma free fatty acid levels” value ([9]; controls 780+/−40) was 450 ± 20 µM.
